Literature values as cited in US10653626B2, “Powder for oral suspension containing lamotrigine” (Shanghai Aucta Pharmaceuticals Co., Ltd., priority 2016, dated 2020).

## Nc1nnc(-c2cccc(Cl)c2Cl)c(N)n1 [Lamotrigine, 6-(2,3-dichlorophenyl)-1,2,4-triazine-3,5-diamine]
  Solubility in water: insoluble in water
